Assay [1] concerns the target Sodium-dependent serotonin transporter (Homo sapiens, UniProt P31645).
Assay [2] has as its target 3',5'-cyclic-AMP phosphodiesterase 4A (Homo sapiens, UniProt P27815). The class given is functional.
Assay [3] deals with T1, Estrogen receptor (Homo sapiens, UniProt P03372).
T1 sequence (P03372 whole entry): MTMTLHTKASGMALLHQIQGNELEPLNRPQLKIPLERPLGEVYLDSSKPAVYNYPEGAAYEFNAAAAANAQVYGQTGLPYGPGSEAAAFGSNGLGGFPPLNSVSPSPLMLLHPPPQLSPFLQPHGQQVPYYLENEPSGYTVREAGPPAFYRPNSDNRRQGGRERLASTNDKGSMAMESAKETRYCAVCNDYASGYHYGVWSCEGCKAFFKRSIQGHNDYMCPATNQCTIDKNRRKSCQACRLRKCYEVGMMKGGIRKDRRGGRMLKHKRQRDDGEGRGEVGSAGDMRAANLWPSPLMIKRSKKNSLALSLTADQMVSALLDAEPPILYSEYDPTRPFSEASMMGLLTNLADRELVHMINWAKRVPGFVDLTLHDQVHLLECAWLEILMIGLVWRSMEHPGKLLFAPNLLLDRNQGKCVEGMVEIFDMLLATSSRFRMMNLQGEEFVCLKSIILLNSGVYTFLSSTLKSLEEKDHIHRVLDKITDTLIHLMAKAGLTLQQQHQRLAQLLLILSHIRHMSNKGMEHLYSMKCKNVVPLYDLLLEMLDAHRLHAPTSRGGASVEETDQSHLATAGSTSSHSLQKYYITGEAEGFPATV

Assay [4] addresses T2, Alpha-2A adrenergic receptor (Homo sapiens, UniProt P08913).
T2 sequence (P08913 whole entry): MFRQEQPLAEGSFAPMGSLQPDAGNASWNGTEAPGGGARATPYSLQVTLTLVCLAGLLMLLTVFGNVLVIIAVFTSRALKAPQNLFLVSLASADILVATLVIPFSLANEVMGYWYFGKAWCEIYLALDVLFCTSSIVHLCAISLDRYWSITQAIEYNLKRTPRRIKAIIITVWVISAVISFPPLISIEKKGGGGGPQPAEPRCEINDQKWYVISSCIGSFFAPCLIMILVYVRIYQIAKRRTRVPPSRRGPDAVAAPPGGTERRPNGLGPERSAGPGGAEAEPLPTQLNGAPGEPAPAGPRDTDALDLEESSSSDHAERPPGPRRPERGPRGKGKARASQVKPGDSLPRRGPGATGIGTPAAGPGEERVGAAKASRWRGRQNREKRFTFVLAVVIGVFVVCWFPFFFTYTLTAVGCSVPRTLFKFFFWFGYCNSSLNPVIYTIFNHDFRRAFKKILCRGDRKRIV

Assay [5] has as its target D(3) dopamine receptor (Homo sapiens, UniProt P35462).
Assay [6] concerns the target Mu-type opioid receptor (Homo sapiens, UniProt P35372).
In assay [7] the target is Voltage-gated inwardly rectifying potassium channel KCNH2 (Homo sapiens, UniProt Q12809). Type of assay: functional. The settings on record: read-out: AC50.
Chain of Voltage-gated inwardly rectifying potassium channel KCNH2 (Q12809 whole entry): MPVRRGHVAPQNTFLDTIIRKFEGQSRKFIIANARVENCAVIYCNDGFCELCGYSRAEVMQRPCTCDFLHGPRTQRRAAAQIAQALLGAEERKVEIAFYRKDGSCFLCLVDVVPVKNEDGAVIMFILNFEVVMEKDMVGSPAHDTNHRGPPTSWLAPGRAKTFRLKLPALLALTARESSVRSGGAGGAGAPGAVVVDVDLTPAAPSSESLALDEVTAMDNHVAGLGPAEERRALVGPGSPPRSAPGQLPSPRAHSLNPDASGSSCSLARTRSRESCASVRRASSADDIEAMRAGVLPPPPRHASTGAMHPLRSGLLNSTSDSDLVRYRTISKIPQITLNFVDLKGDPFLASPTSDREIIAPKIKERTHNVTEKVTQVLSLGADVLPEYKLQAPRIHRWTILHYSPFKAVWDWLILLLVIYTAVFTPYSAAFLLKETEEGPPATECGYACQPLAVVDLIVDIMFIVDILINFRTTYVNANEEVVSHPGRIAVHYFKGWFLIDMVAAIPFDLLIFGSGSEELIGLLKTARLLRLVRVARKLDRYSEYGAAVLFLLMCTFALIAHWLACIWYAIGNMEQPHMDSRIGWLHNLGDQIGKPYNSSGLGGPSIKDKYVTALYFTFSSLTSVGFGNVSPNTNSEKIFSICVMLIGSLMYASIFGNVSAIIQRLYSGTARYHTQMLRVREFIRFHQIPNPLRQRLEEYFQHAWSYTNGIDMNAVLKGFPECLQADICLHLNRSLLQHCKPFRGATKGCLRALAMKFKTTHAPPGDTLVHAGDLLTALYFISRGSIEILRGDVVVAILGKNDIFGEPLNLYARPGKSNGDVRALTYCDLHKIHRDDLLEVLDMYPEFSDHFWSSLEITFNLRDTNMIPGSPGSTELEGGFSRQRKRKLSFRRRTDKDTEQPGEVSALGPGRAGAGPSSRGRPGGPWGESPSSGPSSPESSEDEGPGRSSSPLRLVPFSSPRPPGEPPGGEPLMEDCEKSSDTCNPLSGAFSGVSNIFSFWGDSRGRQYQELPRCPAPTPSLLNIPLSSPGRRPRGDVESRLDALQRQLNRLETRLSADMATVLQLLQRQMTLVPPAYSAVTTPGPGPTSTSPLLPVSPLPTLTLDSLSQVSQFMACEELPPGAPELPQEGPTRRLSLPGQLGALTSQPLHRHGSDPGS
Assay [8] addresses T3, Muscarinic acetylcholine receptor M2 (Homo sapiens, UniProt P08172).
T3 sequence (P08172 whole entry): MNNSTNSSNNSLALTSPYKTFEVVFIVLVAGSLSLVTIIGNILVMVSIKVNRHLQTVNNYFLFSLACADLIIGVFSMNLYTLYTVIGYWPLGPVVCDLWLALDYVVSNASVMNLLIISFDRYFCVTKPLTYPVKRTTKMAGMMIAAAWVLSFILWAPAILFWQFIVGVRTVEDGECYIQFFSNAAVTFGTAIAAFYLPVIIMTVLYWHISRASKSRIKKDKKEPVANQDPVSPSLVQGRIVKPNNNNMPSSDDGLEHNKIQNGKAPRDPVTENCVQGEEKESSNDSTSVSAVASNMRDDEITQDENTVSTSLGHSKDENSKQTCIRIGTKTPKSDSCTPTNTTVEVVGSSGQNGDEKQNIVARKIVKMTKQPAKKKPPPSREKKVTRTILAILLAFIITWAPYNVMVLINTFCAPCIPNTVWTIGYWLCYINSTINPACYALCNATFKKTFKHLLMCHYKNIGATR

For assay [9], the target named is Histamine H3 receptor (Homo sapiens, UniProt Q9Y5N1).
Chain of Histamine H3 receptor (Q9Y5N1 whole entry): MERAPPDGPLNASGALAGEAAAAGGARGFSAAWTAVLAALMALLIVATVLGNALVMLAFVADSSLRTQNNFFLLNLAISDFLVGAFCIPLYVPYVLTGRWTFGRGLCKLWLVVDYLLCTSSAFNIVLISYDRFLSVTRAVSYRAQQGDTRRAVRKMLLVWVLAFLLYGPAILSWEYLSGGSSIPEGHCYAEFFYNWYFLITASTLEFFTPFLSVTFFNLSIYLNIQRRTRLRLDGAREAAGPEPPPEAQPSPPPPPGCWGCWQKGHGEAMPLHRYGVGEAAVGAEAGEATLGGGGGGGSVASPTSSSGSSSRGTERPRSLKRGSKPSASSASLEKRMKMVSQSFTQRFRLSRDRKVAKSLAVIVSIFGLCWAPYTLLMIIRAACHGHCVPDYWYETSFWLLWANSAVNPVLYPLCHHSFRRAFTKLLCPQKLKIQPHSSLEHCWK
In assay [10] the target is T4, Alpha-1A adrenergic receptor (Homo sapiens, UniProt P35348).
T4 sequence (P35348 whole entry): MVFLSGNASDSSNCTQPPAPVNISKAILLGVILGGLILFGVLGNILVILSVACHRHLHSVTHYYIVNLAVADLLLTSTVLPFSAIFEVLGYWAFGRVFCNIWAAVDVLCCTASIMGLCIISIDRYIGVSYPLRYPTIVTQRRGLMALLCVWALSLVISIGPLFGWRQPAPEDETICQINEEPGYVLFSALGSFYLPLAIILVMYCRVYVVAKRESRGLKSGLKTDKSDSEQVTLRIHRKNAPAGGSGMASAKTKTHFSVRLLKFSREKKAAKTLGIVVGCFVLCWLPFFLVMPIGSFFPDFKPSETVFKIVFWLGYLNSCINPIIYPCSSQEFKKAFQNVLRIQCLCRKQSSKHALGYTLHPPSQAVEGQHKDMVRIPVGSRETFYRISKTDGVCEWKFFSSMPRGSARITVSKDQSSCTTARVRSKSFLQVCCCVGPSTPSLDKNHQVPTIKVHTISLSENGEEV
The class given is functional, cell-based.

Assay [11] concerns the target T4, Alpha-1A adrenergic receptor. Type of assay: functional, cell-based. This is another data set of the same source.
Also: assay procedure not described here.

Chain of Mu-type opioid receptor (P35372 whole entry): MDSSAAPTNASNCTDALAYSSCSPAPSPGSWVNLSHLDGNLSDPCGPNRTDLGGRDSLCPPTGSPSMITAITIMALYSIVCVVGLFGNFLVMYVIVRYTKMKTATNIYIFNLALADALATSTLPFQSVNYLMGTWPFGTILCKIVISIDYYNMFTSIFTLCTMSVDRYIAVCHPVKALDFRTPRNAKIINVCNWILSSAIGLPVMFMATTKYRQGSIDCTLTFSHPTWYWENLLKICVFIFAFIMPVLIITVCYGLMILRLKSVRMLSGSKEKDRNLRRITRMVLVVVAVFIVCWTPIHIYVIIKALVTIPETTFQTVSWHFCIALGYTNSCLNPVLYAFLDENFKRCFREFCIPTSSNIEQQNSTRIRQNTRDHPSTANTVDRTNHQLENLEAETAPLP
Chain of Sodium-dependent serotonin transporter (P31645 whole entry): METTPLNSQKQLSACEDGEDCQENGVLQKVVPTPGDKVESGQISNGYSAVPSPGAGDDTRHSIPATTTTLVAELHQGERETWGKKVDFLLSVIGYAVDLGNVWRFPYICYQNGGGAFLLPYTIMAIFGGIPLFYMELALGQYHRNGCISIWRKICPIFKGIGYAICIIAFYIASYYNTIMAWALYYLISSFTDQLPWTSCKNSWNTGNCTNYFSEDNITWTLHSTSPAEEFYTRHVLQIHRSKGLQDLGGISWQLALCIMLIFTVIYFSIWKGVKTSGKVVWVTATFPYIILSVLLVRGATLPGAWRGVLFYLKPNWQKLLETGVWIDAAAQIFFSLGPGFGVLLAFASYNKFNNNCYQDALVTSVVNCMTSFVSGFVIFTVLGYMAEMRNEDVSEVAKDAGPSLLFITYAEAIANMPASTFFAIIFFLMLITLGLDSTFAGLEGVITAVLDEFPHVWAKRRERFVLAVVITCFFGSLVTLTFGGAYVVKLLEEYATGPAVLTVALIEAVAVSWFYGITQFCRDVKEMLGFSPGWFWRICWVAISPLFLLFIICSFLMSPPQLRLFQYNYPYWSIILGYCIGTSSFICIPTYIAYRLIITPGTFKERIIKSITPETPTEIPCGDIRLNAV
Chain of 3',5'-cyclic-AMP phosphodiesterase 4A (P27815 whole entry): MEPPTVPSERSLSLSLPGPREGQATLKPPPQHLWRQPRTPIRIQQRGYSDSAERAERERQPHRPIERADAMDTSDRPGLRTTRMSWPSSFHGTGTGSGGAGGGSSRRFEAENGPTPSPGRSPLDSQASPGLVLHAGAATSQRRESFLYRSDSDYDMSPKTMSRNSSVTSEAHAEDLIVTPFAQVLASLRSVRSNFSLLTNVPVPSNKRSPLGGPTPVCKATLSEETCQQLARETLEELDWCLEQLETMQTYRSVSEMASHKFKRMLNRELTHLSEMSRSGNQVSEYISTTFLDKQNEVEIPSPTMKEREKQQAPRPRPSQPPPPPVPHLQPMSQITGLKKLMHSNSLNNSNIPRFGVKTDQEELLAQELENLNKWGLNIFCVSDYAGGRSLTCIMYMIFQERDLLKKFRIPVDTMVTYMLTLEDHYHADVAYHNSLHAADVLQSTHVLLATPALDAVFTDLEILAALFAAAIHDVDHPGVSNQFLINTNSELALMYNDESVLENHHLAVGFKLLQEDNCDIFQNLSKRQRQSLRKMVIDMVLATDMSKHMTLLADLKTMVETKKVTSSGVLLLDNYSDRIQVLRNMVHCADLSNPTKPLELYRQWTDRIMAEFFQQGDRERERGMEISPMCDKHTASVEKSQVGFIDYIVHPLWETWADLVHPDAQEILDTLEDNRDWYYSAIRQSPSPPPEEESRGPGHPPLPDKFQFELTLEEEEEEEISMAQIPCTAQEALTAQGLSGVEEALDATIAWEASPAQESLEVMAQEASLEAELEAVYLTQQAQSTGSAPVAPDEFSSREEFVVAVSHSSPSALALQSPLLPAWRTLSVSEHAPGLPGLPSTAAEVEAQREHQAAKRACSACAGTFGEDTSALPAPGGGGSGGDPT
Chain of D(3) dopamine receptor (P35462 whole entry): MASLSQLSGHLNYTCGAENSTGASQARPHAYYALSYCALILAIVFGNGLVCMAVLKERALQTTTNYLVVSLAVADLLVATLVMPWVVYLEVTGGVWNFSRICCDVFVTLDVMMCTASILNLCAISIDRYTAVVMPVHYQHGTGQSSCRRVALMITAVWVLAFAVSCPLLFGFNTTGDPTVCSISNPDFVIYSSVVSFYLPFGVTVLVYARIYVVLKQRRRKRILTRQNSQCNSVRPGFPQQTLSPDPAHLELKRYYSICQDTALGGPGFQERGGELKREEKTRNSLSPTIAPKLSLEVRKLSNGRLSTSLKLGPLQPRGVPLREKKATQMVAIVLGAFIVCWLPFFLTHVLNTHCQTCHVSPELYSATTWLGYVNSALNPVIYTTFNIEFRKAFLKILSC

A word on the AC50: it is the concentration giving half of the maximal activity seen. For the compound `CN1CCc2c(c3ccccc3n2Cc2ccccc2)C1` [MEBHYDROLIN], the AC50 in assay [1] is 28.5 µM; in assay [2], above 30 µM; in assay [3], above 30 µM; in assay [4] it was 0.533 µM; in [5], 1.19 µM; in assay [6], 18.7 µM. The AC50 is 1 µM in assay [7]; 0.268 µM in assay [8]; above 30 µM in assay [9]; above 30 µM in assay [10]; 1.07 µM in assay [11].
For the compound `CC(O)(CC(=O)O)CC(=O)O` [MEGLUTOL], the AC50 in assay [1], in assay [2], in assay [3], in assay [4], in assay [5] and in assay [6] was above 30 µM each time. Further, the AC50 was above 30 µM in assay [7]; above 30 µM in [8]; above 30 µM in assay [9]; above 30 µM in [10]; 18 µM in [11].
In the case of `CC(C)=CCC/C(C)=C/CC/C(C)=C/CC/C(C)=C/CC1=C(C)C(=O)c2ccccc2C1=O` [MENATETRENONE], the AC50 in [1] is above 30 µM; in [2], 8.53 µM; in assay [3], above 30 µM; in assay [4], above 10 µM; in assay [5], 2.91 µM; in assay [6], above 30 µM. In addition, the AC50 in assay [7], in [8], in assay [9], in [10] and in [11] was above 30 µM throughout.
Turning to `CN1CCCC(CC2c3ccccc3Sc3ccccc32)C1` (stereo not drawn) [METHIXENE], the AC50 in [1] is 18.2 µM; in [2], above 30 µM; in assay [3], above 30 µM; in assay [4] it was 4.82 µM; in assay [5] it was 0.742 µM; in assay [6], 13.9 µM. Also, the AC50 in assay [7] is 3.1 µM; in assay [8] it was 0.0054 µM; in assay [9], 20.3 µM; in [10] it was above 30 µM; in assay [11], 0.586 µM.
Take `NC(=O)N/N=C/c1ccc([N+](=O)[O-])o1` [NITROFURAZONE]: the AC50 in assay [1], in [2], in assay [3], in [4], in [5] and in assay [6] was above 30 µM in each case. Moreover, the half-maximal activity concentration (AC50) in assay [7], in assay [8], in assay [9], in [10] and in [11] was above 30 µM in each case.
Turning to `CC(C)N1CCOC(c2cccc(C(F)(F)F)c2)C1` (stereo not drawn) [OXAFLOZANE], the AC50 was above 30 µM in assay [1]; above 30 µM in [2]; above 30 µM in assay [3]; above 30 µM in [4]; 1.65 µM in assay [5]; above 30 µM in [6]. Moreover, the AC50 in assay [7] was above 30 µM; in assay [8] it was 23.5 µM; in assay [9] it was above 30 µM; in [10], above 30 µM; in assay [11], above 30 µM.
In the case of `COc1ccc(C(=O)c2ccccc2)c(O)c1` [OXYBENZONE], the AC50 in assay [1] is above 30 µM; in assay [2], 18.1 µM; in assay [3], above 30 µM; in assay [4], above 30 µM; in assay [5], above 30 µM; in assay [6], above 30 µM. Besides, the AC50 was above 30 µM in [7]; above 30 µM in assay [8]; above 30 µM in assay [9]; above 30 µM in assay [10]; above 10 µM in assay [11].
As to `O=C1Nc2ccccc2C1(c1ccc(O)cc1)c1ccc(O)cc1` [OXYPHENISATINE], the AC50 in [1], in assay [2], in [3], in [4], in assay [5] and in assay [6] was above 30 µM in each case. Besides, the AC50 in assay [7] was 10.1 µM; in assay [8] it was 11.9 µM; in assay [9], above 30 µM; in assay [10] it was above 30 µM; in assay [11], above 30 µM.
On to `CN1C(C(=O)Nc2ccccn2)=C(OC(=O)/C=C/c2ccccc2)c2ccccc2S1(=O)=O` [PIROXICAM CINNAMATE], for which the AC50 in assay [1], in assay [2], in [3], in [4], in [5] and in assay [6] was above 30 µM throughout. Further, the AC50 in [7], in assay [8], in assay [9], in assay [10] and in assay [11] was above 30 µM in each case.
Turning to `Cc1c(C(C)C)c(=O)n(-c2ccccc2)n1C` [PROPYPHENAZONE], the AC50 in assay [1], in assay [2], in [3], in [4], in assay [5] and in [6] was above 30 µM in each case. Also, the AC50 in assay [7], in assay [8], in assay [9], in assay [10] and in assay [11] was above 30 µM each time.
`Cc1cn(-c2cc(NC(=O)c3ccc(C)c(Nc4nccc(-c5cnccn5)n4)c3)cc(C(F)(F)F)c2)cn1` [RADOTINIB]: the AC50 in [1] is above 30 µM; in assay [2] it was above 30 µM; in [3], above 30 µM; in assay [4], above 30 µM; in assay [5], above 30 µM; in assay [6] it was above 3 µM. In addition, the AC50 in assay [7], in assay [8], in assay [9], in assay [10] and in assay [11] was above 30 µM each time.
Regarding `COC(=O)N(C)c1c(N)nc(-c2nn(Cc3ccccc3F)c3ncccc23)nc1N` [RIOCIGUAT], the AC50 in assay [1], in assay [2], in [3], in [4], in assay [5] and in assay [6] was above 30 µM throughout. In addition, the AC50 in assay [7] is 5 µM; in [8], above 30 µM; in assay [9], above 30 µM; in [10], above 30 µM; in [11], above 30 µM.
Regarding `[H]/N=C(/N)NS(=O)(=O)c1ccc(N)cc1` [SULFAGUANIDINE], the AC50 in [1], in assay [2], in assay [3], in [4], in assay [5] and in assay [6] was above 30 µM in each case. Moreover, the AC50 in assay [7], in assay [8], in assay [9], in [10] and in assay [11] was above 30 µM throughout.

The values are drawn from ChEMBL document CHEMBL5291721, “A preclinical secondary pharmacology resource illuminates target-adverse drug reaction associations of marketed drugs” (Nat Commun, 2023).
